{"source": "patent US20030220211A1", "about": "“Methods, compositions, and articles for control of malodor produced by urea-containing body fluids” (The Procter & Gamble Company, priority 2000, published 2003)", "key": {"[1]": {"biological_target": "T1, Urease (Type III from jack beans) (Canavalia ensiformis, UniProt P07374)", "T1 construct": "purchased Sigma U-1500", "T1 sequence (P07374 whole entry, looked up)": "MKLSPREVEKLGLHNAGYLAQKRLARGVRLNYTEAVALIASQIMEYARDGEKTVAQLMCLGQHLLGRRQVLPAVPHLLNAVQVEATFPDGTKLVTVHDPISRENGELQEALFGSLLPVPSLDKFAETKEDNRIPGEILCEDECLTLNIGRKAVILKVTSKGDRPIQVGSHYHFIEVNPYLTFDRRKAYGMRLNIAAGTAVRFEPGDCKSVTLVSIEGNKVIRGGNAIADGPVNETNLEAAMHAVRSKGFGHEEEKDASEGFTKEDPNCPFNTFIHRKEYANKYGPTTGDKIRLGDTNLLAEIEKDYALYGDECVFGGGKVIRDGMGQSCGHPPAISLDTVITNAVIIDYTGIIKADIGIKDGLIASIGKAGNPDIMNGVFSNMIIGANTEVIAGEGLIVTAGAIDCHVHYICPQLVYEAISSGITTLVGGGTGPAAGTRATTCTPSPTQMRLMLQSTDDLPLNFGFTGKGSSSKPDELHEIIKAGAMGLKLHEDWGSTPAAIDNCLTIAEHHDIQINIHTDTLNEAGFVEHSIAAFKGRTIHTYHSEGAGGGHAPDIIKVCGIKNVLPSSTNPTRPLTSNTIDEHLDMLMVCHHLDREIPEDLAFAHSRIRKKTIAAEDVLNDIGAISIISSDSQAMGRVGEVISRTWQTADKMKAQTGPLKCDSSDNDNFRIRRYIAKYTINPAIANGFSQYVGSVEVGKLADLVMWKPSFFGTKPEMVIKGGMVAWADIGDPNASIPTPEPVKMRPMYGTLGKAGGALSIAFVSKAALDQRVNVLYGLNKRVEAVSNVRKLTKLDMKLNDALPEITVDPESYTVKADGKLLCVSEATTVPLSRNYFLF", "test": "Ammonia odor detection on paper towel sheets treated with urea and urease solution", "assay_type": "biochemical", "conditions": "paper towel sheet, 15 drops CuHEDTA Test Solution (urea 2M/tris + Cu/HEDTA complex solution 125 mM) + 2 drops urease solution; after 30 minutes at room temperature; smell", "description": "In such a test, conventional paper towel sheets are treated with both a urea solution and a urease solution. One such sheet serves as a reference sheet; another such sheet is treated with a urease solution which also contains a complex of copper chelated with N-(2-hydroxyethyl)ethylenediamine triacetic acid. After 30 minutes at room temperature, the sheets are evaluated for detectable ammonia order.\nDissolve 2.42 g of trizma-base in about 80 mL H2O deionized, adjust the pH to 7.5 with HCL 1M, bring to 100 mL with H2O deionized.\nDissolve 6 g of Urea in 50 mL of this buffer 0.2M, pH 7.5\nDissolve 2.13 g of CuCl in 50 mL of H2O deionized.\nDissolve 2.15 g of HEDTA in 25 mL of H2O deionized\nCu/HEDTA complex solution (125 mM)\nMix 25 ml of CuCl2 solution (250 mM) with 25 mL HEDTA solution (250 mM)at adjusted with NaOH to pH around 7\nUrease solution (10 mg/mL)\nWeigh 0.020 g of urease and add 3 mL of tris buffer pH 7.5, 0.2M. This solution is stable for about 1 week provided it is stored at 4° C. in a refrigerator.\n10 mL urea 2M/tris+500 mL of H2O deionized buffer.\n10 mL Urea 2M/tris+500 mL Cu/TED complex solution buffer (125 mM)\nHalf of a white BOUNTY™® towel sheet is put in each of two Petri dishes. Into one dish, 15 drops of the reference solution are poured evenly so that the center of the towel sheet is evenly wet. […]"}, "urine malodor": {"test_system": "urine malodor", "conditions": "5 mMol/liter solution, 250 ml sprayed once per day for 11 days over 4 m^2 (105 mg/m^2)", "protocol": "A liquid product for treating hard surfaces is prepared and tested by spraying the product on walls, floors and other surfaces surrounding the urinals in a public men's restroom. Product preparation, use and test results are as follows:\nA 5 mMol/liter solution of CuHEDTA is prepared from:\n1721 mg of HEDTA (trisodium salt hydrate, MW=344.21);\n1250 mg of CuSO4 (pentahydrate, MW=250);\n1000 ml of deionized water.\nUsing a spray-gun, 250 ml of this solution is sprayed once per day for 11 days over a 4 m^2 area surrounding the urinals in a public men's restroom."}}, "data": [{"smiles": "O=C([O-])CN(CCN(CCO)CC(=O)O)CC(=O)[O-].[Cu+2]", "note": "[CuHEDTA, copper salt of N-hydroxyethyl-ethylenediamine-triacetic acid]", "values": [{"measurement": "detectable ammonia odor", "setting": "[1]", "result": "No ammonia odor is detectable"}, {"measurement": "urine malodor control in the men's restroom", "setting": "urine malodor", "result": "effectively controlled for the full 11 day period"}]}]}
